Assay results taken from PubChem BioAssay AID330 (DTP/NCI, 2004).
Toxic doses and inconclusive results are not listed. How the source made its calls: active means survival T/C of 150% or more; inactive means T/C below 125% in these data.

Test system: P388 leukemia ip, CD2F1 mice, survival T/C
Assay: NCI In Vivo Anticancer Drug Screen. Data for tumor model P388 Leukemia (intraperitoneal) in CD2F1 (CDF1) mice
Settings: endpoint: median survival time, higher = longer survival
In short: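 Mice carrying the transplanted tumor received test compound or vehicle. Survival was recorded in each group, and the value is the treated-group measurement divided by that of the vehicle-treated control group.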

[1] = dose: 200.0 mg/kg/injection, schedule: Q01DX009 (ip), vehicle: saline with Tween-80
[2] = dose: 50.0 mg/kg/injection, schedule: Q01DX009 (ip), vehicle: saline with Tween-80
[3] = dose: 100.0 mg/kg/injection, schedule: Q01DX009 (ip), vehicle: saline with Tween-80
[4] = dose: 60.0 mg/kg/injection, schedule: Q01DX005 (ip), vehicle: saline with Tween-80
[5] = dose: 100.0 mg/kg/injection, schedule: Q04DX003 (ip), vehicle: Klucel (hydroxypropylcellulose) (HPC)
[6] = dose: 200.0 mg/kg/injection, schedule: Q04DX003 (ip), vehicle: Klucel (hydroxypropylcellulose) (HPC)
[7] = dose: 50.0 mg/kg/injection, schedule: Q01DX005 (ip), vehicle: Klucel (hydroxypropylcellulose) (HPC)
[8] = dose: 100.0 mg/kg/injection, schedule: Q01DX005 (ip), vehicle: Klucel (hydroxypropylcellulose) (HPC)
[9] = dose: 200.0 mg/kg/injection, schedule: Q01DX005 (ip), vehicle: Klucel (hydroxypropylcellulose) (HPC)
[10] = dose: 50.0 mg/kg/injection, schedule: Q01DX009 (ip), vehicle: saline
[11] = dose: 100.0 mg/kg/injection, schedule: Q01DX009 (ip), vehicle: saline

Measured: T/C

N#Cc1cc([N+](=O)[O-])cnc1Sc1ncccn1
inactive: dose: 6.25 mg/kg/injection, schedule: Q01DX009 (ip), vehicle: Klucel (hydroxypropylcellulose) (HPC) 108 % of control | dose: 12.5 mg/kg/injection, schedule: Q01DX009 (ip), vehicle: Klucel (hydroxypropylcellulose) (HPC) 104 % of control | dose: 25.0 mg/kg/injection, schedule: Q01DX009 (ip), vehicle: Klucel (hydroxypropylcellulose) (HPC) 90 % of control

CC1CN(C(=O)Nc2ccc(Cl)c(Cl)c2)CC(C)O1 (centres undefined)
inactive: dose: 6.25 mg/kg/injection, schedule: Q01DX009 (ip), vehicle: saline 100 % of control | dose: 12.5 mg/kg/injection, schedule: Q01DX009 (ip), vehicle: saline 98 % of control | dose: 25.0 mg/kg/injection, schedule: Q01DX009 (ip), vehicle: saline 86 % of control | [1] 100 % of control

COc1ccc2c(c1)CCC(C(O)C1(Sc3c(OC)cccc3OC)CC1)C2=O (centres undefined)
inactive: dose: 50.0 mg/kg/injection, schedule: Q01DX005 (ip), vehicle: saline with Tween-80 100 % of control | dose: 100.0 mg/kg/injection, schedule: Q01DX005 (ip), vehicle: saline with Tween-80 100 % of control | dose: 200.0 mg/kg/injection, schedule: Q01DX005 (ip), vehicle: saline with Tween-80 100 % of control

BC(=O)O
inactive: dose: 25.0 mg/kg/injection, schedule: Q01DX005 (ip), vehicle: saline 97 % of control | dose: 50.0 mg/kg/injection, schedule: Q01DX005 (ip), vehicle: saline 93 % of control | dose: 100.0 mg/kg/injection, schedule: Q01DX005 (ip), vehicle: saline 93 % of control | dose: 200.0 mg/kg/injection, schedule: Q01DX005 (ip), vehicle: saline 106 % of control

Cc1ccc(SCC(=O)O)c(C)c1
inactive: [2] 88 % of control | [3] 88 % of control | [1] 94 % of control | dose: 400.0 mg/kg/injection, schedule: Q01DX009 (ip), vehicle: saline with Tween-80 103 % of control

CC1(C)N=C(N)N=C(N)N1c1cc(C(F)(F)F)cc(C(F)(F)F)c1
inactive: dose: 7.5 mg/kg/injection, schedule: Q01DX005 (ip), vehicle: Klucel (hydroxypropylcellulose) (HPC) 99 % of control | dose: 15.0 mg/kg/injection, schedule: Q01DX005 (ip), vehicle: Klucel (hydroxypropylcellulose) (HPC) 94 % of control | dose: 30.0 mg/kg/injection, schedule: Q01DX005 (ip), vehicle: Klucel (hydroxypropylcellulose) (HPC) 105 % of control

CCCCCCCCSC(=O)n1cc(F)c(=O)[nH]c1=O
inactive: dose: 15.0 mg/kg/injection, schedule: Q01DX005 (ip), vehicle: saline with Tween-80 103 % of control | dose: 30.0 mg/kg/injection, schedule: Q01DX005 (ip), vehicle: saline with Tween-80 120 % of control | [4] 120 % of control

CC(C)(C)c1ccc(SS(=O)(=O)c2ccc(C(C)(C)C)cc2)cc1
inactive: dose: 100.0 mg/kg/injection, schedule: Q01DX001 (ip), vehicle: saline with Tween-80 98 % of control | [5] 97 % of control | dose: 200.0 mg/kg/injection, schedule: Q01DX001 (ip), vehicle: saline with Tween-80 100 % of control | [6] 104 % of control | dose: 400.0 mg/kg/injection, schedule: Q01DX001 (ip), vehicle: saline with Tween-80 97 % of control | dose: 400.0 mg/kg/injection, schedule: Q04DX003 (ip), vehicle: Klucel (hydroxypropylcellulose) (HPC) 105 % of control

O=C1c2ccccc2C2(O)C3c4ccccc4CCN3CN12 (centres undefined)
inactive: [7] 100 % of control | [8] 101 % of control | [9] 101 % of control

CC(C)c1c(O)c(O)c2c(c1O)C(=O)C(O)=C1C(C)(C)CCC[C@@]12C
inactive: dose: 12.5 mg/kg/injection, schedule: Q01DX005 (ip), vehicle: Klucel (hydroxypropylcellulose) (HPC) 98 % of control | dose: 25.0 mg/kg/injection, schedule: Q01DX005 (ip), vehicle: Klucel (hydroxypropylcellulose) (HPC) 94 % of control | [7] 102 % of control | [8] 100 % of control | [9] 109 % of control

NC1=NN(S(=O)(=O)c2ccc(Cl)cc2)CC1
inactive: [7] 96 % of control | [8] 88 % of control | [9] 90 % of control

Nc1ccc(C2NC(=O)Cc3ccccc32)cc1 (centres undefined)
inactive: [10] 92 % of control | [11] 90 % of control | dose: 200.0 mg/kg/injection, schedule: Q01DX009 (ip), vehicle: saline 86 % of control

COc1cc2cnc(-c3ccccc3)cc2cc1OC
inactive: dose: 100.0 mg/kg/injection, schedule: Q04DX003 (ip), vehicle: suspension in saline 101 % of control | dose: 200.0 mg/kg/injection, schedule: Q04DX003 (ip), vehicle: suspension in saline 93 % of control | dose: 400.0 mg/kg/injection, schedule: Q04DX003 (ip), vehicle: suspension in saline 93 % of control

O=C1CNC(=O)C12C(=O)CNC2=O
inactive: dose: 100.0 mg/kg/injection, schedule: Q04DX002 (ip), vehicle: saline with Tween-80 98 % of control | dose: 200.0 mg/kg/injection, schedule: Q04DX002 (ip), vehicle: saline with Tween-80 96 % of control | dose: 400.0 mg/kg/injection, schedule: Q04DX002 (ip), vehicle: saline with Tween-80 98 % of control

O=[N+]([O-])c1cccc2nc(Cl)ccc12
inactive: dose: 25.0 mg/kg/injection, schedule: Q01DX009 (ip), vehicle: other 93 % of control | dose: 50.0 mg/kg/injection, schedule: Q01DX009 (ip), vehicle: other 93 % of control | dose: 100.0 mg/kg/injection, schedule: Q01DX009 (ip), vehicle: other 98 % of control

C1CCCCCC2OC2CCCC1 (centres undefined)
inactive: dose: 50.0 mg/kg/injection, schedule: Q04DX003 (ip), vehicle: Klucel (hydroxypropylcellulose) (HPC) 107 % of control | [5] 112 % of control | [6] 107 % of control

C=C1C(=O)OC2(C)C3CCC(C3)C12 (centres undefined)
inactive: [10] 96 % of control | [11] 113 % of control

O=C(CC(O)(C(F)(F)F)C(F)(F)F)c1ccco1
inactive: dose: 33.0 mg/kg/injection, schedule: Q01DX009 (ip), vehicle: saline with Tween-80 110 % of control

COc1cc(OC)c(NC(=O)Oc2cc(C)c(Br)c(C)c2)cc1Cl
inactive: [2] 91 % of control | [3] 95 % of control | [1] 108 % of control

Cn1c(=O)c2cc(C(N)=O)c(=O)oc2n(C)c1=O
inactive: dose: 62.5 mg/kg/injection, schedule: Q01DX001 (ip), vehicle: Klucel (hydroxypropylcellulose) (HPC) 109 % of control | dose: 125.0 mg/kg/injection, schedule: Q01DX001 (ip), vehicle: Klucel (hydroxypropylcellulose) (HPC) 110 % of control | dose: 250.0 mg/kg/injection, schedule: Q01DX001 (ip), vehicle: Klucel (hydroxypropylcellulose) (HPC) 114 % of control

CN1CCC(=NO)CC1
inactive: dose: 60.0 mg/kg/injection, schedule: Q01DX005 (ip), vehicle: saline 95 % of control | dose: 120.0 mg/kg/injection, schedule: Q01DX005 (ip), vehicle: saline 89 % of control | dose: 240.0 mg/kg/injection, schedule: Q01DX005 (ip), vehicle: saline 94 % of control

COc1ccccc1NC(=O)CC(=O)N1N=C(N(c2ccccc2)c2ccccc2)CC1c1ccccc1 (centres undefined)
inactive: [4] 108 % of control | dose: 120.0 mg/kg/injection, schedule: Q01DX005 (ip), vehicle: saline with Tween-80 107 % of control | dose: 240.0 mg/kg/injection, schedule: Q01DX005 (ip), vehicle: saline with Tween-80 96 % of control

COC(=O)c1nc(=S)[nH]c(C(=O)OC)c1C(=O)c1cccc2ccccc12
inactive: dose: 60.0 mg/kg/injection, schedule: Q01DX005 (ip), vehicle: Klucel + Tween-80 102 % of control | dose: 120.0 mg/kg/injection, schedule: Q01DX005 (ip), vehicle: Klucel + Tween-80 95 % of control | dose: 240.0 mg/kg/injection, schedule: Q01DX005 (ip), vehicle: Klucel + Tween-80 92 % of control
